pIC50: −log10 of the molar value.
Molecular target: D(2) dopamine receptor (Rattus norvegicus, UniProt P61169)
Assay: ChEBML_58532
Source text: Ability to inhibit [3H]spiperone binding to Dopamine receptor D2 in rat corpus striatum

Sequence of D(2) dopamine receptor (P61169 whole entry): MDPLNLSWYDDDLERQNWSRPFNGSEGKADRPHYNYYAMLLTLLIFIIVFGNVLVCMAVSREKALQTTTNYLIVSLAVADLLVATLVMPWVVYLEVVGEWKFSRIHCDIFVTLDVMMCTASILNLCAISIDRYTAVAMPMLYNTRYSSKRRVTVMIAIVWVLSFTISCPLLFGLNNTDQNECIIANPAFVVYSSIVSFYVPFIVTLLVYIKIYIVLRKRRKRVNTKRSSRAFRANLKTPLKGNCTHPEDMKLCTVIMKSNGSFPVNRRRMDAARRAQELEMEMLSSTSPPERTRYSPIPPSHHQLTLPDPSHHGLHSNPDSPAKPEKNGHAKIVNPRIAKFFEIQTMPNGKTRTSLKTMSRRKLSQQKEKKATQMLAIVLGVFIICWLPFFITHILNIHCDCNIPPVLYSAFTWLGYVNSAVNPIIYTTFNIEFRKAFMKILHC

O=c1scc(O)n1CCCCN1CCN(c2ccccn2)CC1
pIC50: < 6.00

From BindingDB's records for doi:10.1021/jm00398a021 (Bristol-Myers, 1988)
